The subject of data set [1] is CCD 18Co (Normal Human colon fibroblast primary cell line). The data set can be described thus: CCK-8 cell proliferation, normal colon cells. Format: cell-based. Conditions: 72 hr. On the procedure: (§1) Specifically, the cell lines cultured in each well of a 96-well plate were dispensed at a density of 18,000 cells per well and cultured overnight, and then the cells were treated with drugs dissolved in various concentrations in the culture medium, and were incubated for 72 hr under a temperature of 37° C. and 5% CO2 condition in a humidified incubator. After completion of the culture, the medium was removed and replaced with 100 μl of PBS, and […] Cell Counting Kit-8 (CCK-8; Dojindo, Japan) solution was added thereto, and the cells were incubated for 3 hr for reaction. Thereafter, the degree of color development of the reaction solution was measured based on absorbance at 450 nm, and the number of cell proliferation was calculated according to the instructions of the producing company.
(§2) HT-29 cells were cultured in McCoy's 5A medium, LoVo cells were cultured in Ham's F-12K (Kaigh's) medium, CCD 18Co cells were cultured in DMEM. Before use, 10% Fetal bovine serum and 100 U/ml penicillin, streptomycin were added to all media.

In data set [2] the test system is HT-29 (Colorectal adenocarcinoma). The data set can be described thus: CCK-8 cell proliferation, colorectal cancer cells. Type of data set: cell-based, human. The note with it: for IC50: HT-29, 72 hr, CCK-8; for SI (Selectivity Index): IC50 for Normal cell (CCD 18Co)/IC50 for HT-29. On the procedure: as §1, §2
Data set [3] has as its system Lovo (Colorectal adenocarcinoma capable of metastasis). The experiment in a line: CCK-8 cell proliferation, metastasis colorectal cancer cells. Format: cell-based, human. The note with it: for IC50: Lovo, 72 hr, CCK-8; for SI (Selectivity Index): IC50 for Normal cell (CCD 18Co)/IC50 for Lovo. On the procedure:
as §1, §2

Data set [4] in a line: In vivo pharmacokinetics in rats (FA in plasma, LC MS/MS). Conditions: male, Sprague Dawley; rat plasma, single oral dose 100 mg/kg FA. On the procedure:
In order to evaluate the in vivo pharmacokinetics of FA-FOS II, the release profile of ferulic acid (FA) released from FA-FOS II in the colon of rats was investigated. Specifically, male Sprague Dawley rats weighing 180 to 250 g were randomly assigned to three groups as follows.
(ii) Ferulic acid (FA) administered group: a drug is prepared by dissolving ferulic acid (FA) in water and is administered orally thereto at a predetermined dose
(iii) FA-FOS II administered group: a drug is prepared by dissolving FA-FOS II in water and is administered orally thereto at a predetermined dose
Ferulic acid (FA) was orally administered to the rats at a dose of 100 mg/kg body weight, based on the amount of ferulic acid (FA), in the state dissolved in sterile water. Further, FA-FOS II was orally administered thereto at a dose of 3.89 g/kg body weight (equivalent to 100 mg/kg body weight in terms of the amount of ferulic acid) based on the amount of FA-FOS II, in the state dissolved in sterile water. After single dose administration via oral intake, rat blood was continuously sampled over 0, 0.5, 1, 3, 6, 8, 12, 24 hr. The sampled samples were subjected to LC MS/MS analysis in a multiple reaction monitoring (MRM) manner of a molecular weight 193.0/133.9 Da (intact mass/fragment mass of FA) to quantify the FA released from plasma.

Converted amounts (≈) assume the structure as drawn. Where two headings read alike, the source gives them in different places.

Consider `O=c1[nH]cc(F)c(=O)[nH]1` [5-Fluorouracil, 5-fluorouracil], for which the IC50 in data set [1] (Homo sapiens, read-out: IC50) amounted to 0.014 µg/mL (≈ 0.108 µM); in data set [2] (Homo sapiens, read-out: IC50), 0.008 µg/mL (≈ 0.0615 µM); in data set [3] (Homo sapiens, read-out: IC50), 0.074 µg/mL (≈ 0.569 µM). The “SI (Selectivity Index)” value was “(SI: 1.685)” in data set [2] and “(SI: 0.186)” in data set [3].
With `COc1cc(/C=C/C(=O)O)ccc1O` [FA, ferulic acid], the IC50 in data set [1] (Homo sapiens, read-out: IC50) stood at 0.583 µg/mL (≈ 3 µM); in data set [2] (Homo sapiens, read-out: IC50), 0.2 µg/mL (≈ 1.03 µM); in data set [3] (Homo sapiens, read-out: IC50), 0.244 µg/mL (≈ 1.26 µM). For the same compound, the “SI (Selectivity Index)” value in data set [2] was “(SI: >2.918)”; in data set [3] it was “(SI: >2.389)”. Also, in data set [4], the Tmax was roughly 5 min. The half-life in data set [4] is roughly 30 min.
Turning to `O=C1[O][Pt]2([NH][C@@H]3CCCC[C@H]3[NH]2)[O]C1=O` [Oxaliplatin, oxaliplatin], the concentration for half-maximal inhibition (IC50) in data set [1] was found to be 0.100 µg/mL; in data set [2] it was 0.015 µg/mL; in data set [3] it was 0.068 µg/mL. The “SI (Selectivity Index)” value in data set [2] is on record as “(SI: 6.631)”; in data set [3], “(SI: 1.473)”.

The term IC50 denotes the concentration at which inhibition is half-maximal. By Tmax is commonly meant the time from dosing to the highest level. As a reminder, the half-life is how long it takes for the measured level to halve. Low values mean rapid decline, high ones slow decline.

The values above are taken from patent US20210403498A1, “PHYTOCHEMICAL-FRUCTOOLIGOSACCHARIDE CONJUGATE, METHOD FOR PRODUCING SAME, AND USE THEREOF” (EVERGREEN BIO CO., LTD., priority 2018, published 2021).
